Reference: patent US12522603B2, “Inhibitors of gas for treating autoinflammatory diseases and cancer metastasis” (The Rockefeller University, priority 2019, dated 2026)

Experiments:
h-cGAS = h-cGAS (Homo sapiens (Human), UniProt Q8N884); test: RapidFire mass spectroscopy assay (cGAMP formation); assay type: biochemical
THP1-Dual cells = test: Cell-based Lucia luciferase assay in THP1-Dual cells; settings: Homo sapiens, Table 4, 100-bp dsDNA transfection 24 h, secreted luciferase reporting interferon-induced gene expression
Human cGAS = Human cGAS (Homo sapiens (Human), UniProt Q8N884); test: cGAS enzyme assay using TR-FRET; assay type: biochemical; settings: Table 5; human cGAS 5 nmol/L, 90 bp dsDNA 100 nmol/L, TR-FRET cGAMP detection; read-out: hcGAS enzyme assay
THP1 cells = test: Cell-based TR-FRET cGAMP assay in THP1 cells; set-up: species or system human; settings: Table 6, PMA-differentiated THP1 cells, 90-bp dsDNA transfection 24 h
[1] = Table 3, compounds from related application PCT/US2019/016673, same RapidFire assay
[2] = Table 2, full-length h-cGAS 100 nM, dsDNA 25 nM, ATP and GTP 100 μM, 7 h RT

Sequence of Human cGAS (Q8N884 whole entry): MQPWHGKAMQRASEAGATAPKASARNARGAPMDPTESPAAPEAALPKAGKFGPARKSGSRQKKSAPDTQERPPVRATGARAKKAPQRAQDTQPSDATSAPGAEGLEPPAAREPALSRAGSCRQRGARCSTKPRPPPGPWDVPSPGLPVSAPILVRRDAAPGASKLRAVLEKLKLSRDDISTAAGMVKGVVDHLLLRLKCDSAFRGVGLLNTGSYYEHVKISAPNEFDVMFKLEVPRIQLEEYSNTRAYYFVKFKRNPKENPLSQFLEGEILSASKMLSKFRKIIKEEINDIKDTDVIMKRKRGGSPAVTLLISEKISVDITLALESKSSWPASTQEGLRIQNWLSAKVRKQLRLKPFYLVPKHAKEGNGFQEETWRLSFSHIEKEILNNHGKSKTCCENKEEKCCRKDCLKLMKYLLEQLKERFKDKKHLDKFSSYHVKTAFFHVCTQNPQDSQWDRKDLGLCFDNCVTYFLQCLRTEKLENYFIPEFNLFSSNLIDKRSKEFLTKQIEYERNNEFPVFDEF
Sequence of h-cGAS (Q8N884 whole entry): as above

Cc1cc(-c2ncn(C)n2)c2c3c([nH]c2c1Cl)CCN(C(=O)CO)C3 [TDI-008989, reference compound]
IC50 (h-cGAS; [1]): 45.9 nM | IC50 (THP1-Dual cells): 6710 nM

O=C(CO)N1CCc2[nH]c3c(F)c(Cl)cc(N4CCS(=O)(=O)C4)c3c2C1 [TDI-008867, reference compound]
IC50 (h-cGAS; [1]): 6930 nM | IC50 (THP1-Dual cells): > 10000 nM

Cn1ccc(-c2nc(Cl)c(Cl)c3c2c2c(n3C)CCN(C(=O)CO)C2)n1 [Example 34, 1-[6,7-Dichloro-5-methyl-9-(1-methyl-1H-pyrazol-3-yl)-1,3,4,5-tetrahydro-2H-pyrrolo[3,2-c:4,5-c′]dipyridin-2-yl]-2-hydroxyethan-1-one]
IC50 (Human cGAS): 150 nM

O=C(CO)N1CCc2[nH]c3c(F)c(Cl)c(OCC4CC4)nc3c2C1 [Example 80, 1-[3-Chloro-2-(cyclopropylmethoxy)-4-fluoro-5,6,7,9-tetrahydro-8H-pyrrolo[3,2-b:4,5-c′]dipyridin-8-yl]-2-hydroxyethan-1-one]
IC50 (Human cGAS): 5000 nM

Cn1ccc(-c2ncc(Cl)c3c2c2c(n3C)CCN(C(=O)CO)C2)n1 [Example 74, 1-[6-Chloro-5-methyl-9-(1-methyl-1H-pyrazol-3-yl)-1,3,4,5-tetrahydro-2H-pyrrolo[3,2-c:4,5-c′]dipyridin-2-yl]-2-hydroxyethan-1-one]
IC50 (Human cGAS): 290 nM

Cn1ccc(-c2ccc(Cl)c3nn4c(c23)CN(C(=O)CO)CC4)n1 [Example 69, 1-[7-Chloro-10-(1-methyl-1H-pyrazol-3-yl)-3,4-dihydropyrazino[1,2-b]indazol-2(1H)-yl]-2-hydroxyethan-1-one]
IC50 (Human cGAS): 280 nM

O=C(CO)N1CCn2nc3c(Cl)c(Cl)ccc3c2C1 [Example 4, 1-(7,8-Dichloro-3,4-dihydropyrazino[1,2-b]indazol-2(1H)-yl)-2-hydroxyethan-1-one]
IC50 (h-cGAS; [2]): 1460 nM | IC50 (Human cGAS): 21000 nM

COCC(=O)N1CCc2[nH]c3cc(Cl)ncc3c2C1 [Example 2, 1-(7-Chloro-1,3,4,5-tetrahydro-2H-pyrrolo[3,2-c:4,5-c′]dipyridin-2-yl)-2-methoxyethan-1-one]
IC50 (h-cGAS; [2]): 2410 nM | IC50 (Human cGAS): > 30000 nM

COCC(=O)N1CCc2nn3c(Cl)c(Cl)ccc3c2C1 [Example 5, 1-(7,8-Dichloro-3,4-dihydropyrazolo[1,5-a:4,3-c′]dipyridin-2(1H)-yl)-2-methoxyethan-1-one]
IC50 (h-cGAS; [2]): 21800 nM | IC50 (Human cGAS): > 30000 nM

CCOc1nc2c3c([nH]c2c(F)c1Cl)CCN(C(=O)CO)C3 [Example 78, 1-(3-Chloro-2-ethoxy-4-fluoro-5,6,7,9-tetrahydro-8H-pyrrolo[3,2-b:4,5-c′]dipyridin-8-yl)-2-hydroxyethan-1-one]
IC50 (Human cGAS): 3700 nM

COCC(=O)N1CCc2[nH]c3c(Cl)cnc(-c4ccn(C)n4)c3c2C1 [Example 73, 1-[6-Chloro-9-(1-methyl-1H-pyrazol-3-yl)-1,3,4,5-tetrahydro-2H-pyrrolo[3,2-c:4,5-c′]dipyridin-2-yl]-2-methoxyethan-1-one]
IC50 (Human cGAS): 870 nM

Cc1noc(-c2cc(Cl)c(F)c3nn4c(c23)CN(C(=O)CO)CC4)n1 [Example 71, 1-[8-Chloro-7-fluoro-10-(3-methyl-1,2,4-oxadiazol-5-yl)-3,4-dihydropyrazino[1,2-b]indazol-2(1H)-yl]-2-hydroxyethan-1-one]
IC50 (Human cGAS): 1400 nM

O=C(CO)N1CCc2[nH]c3c(Cl)c(Cl)c(OC(F)F)nc3c2C1 [Example 81, 1-[3,4-Dichloro-2-(difluoromethoxy)-5,6,7,9-tetrahydro-8H-pyrrolo[3,2-b:4,5-c′]dipyridin-8-yl]-2-hydroxyethan-1-one]
IC50 (Human cGAS): 2400 nM

CCOc1nc2c3c([nH]c2c(Cl)c1Cl)CCN(C(=O)CO)C3 [Example 77, 1-(3,4-Dichloro-2-ethoxy-5,6,7,9-tetrahydro-8H-pyrrolo[3,2-b:4,5-c′]dipyridin-8-yl)-2-hydroxyethan-1-one]
IC50 (Human cGAS): 3000 nM

COCC(=O)N1CCn2nc3c(Cl)c(Cl)ccc3c2C1 [Example 3, 1-(7,8-Dichloro-3,4-dihydropyrazino[1,2-b]indazol-2(1H)-yl)-2-methoxyethan-1-one]
IC50 (h-cGAS; [2]): 2470 nM

O=C(CO)N1CCc2[nH]c3c(F)c(Cl)c(OC(F)F)nc3c2C1 [Example 82, 1-[3-Chloro-2-(difluoromethoxy)-4-fluoro-5,6,7,9-tetrahydro-8H-pyrrolo[3,2-b:4,5-c′]dipyridin-8-yl]-2-hydroxyethan-1-one]
IC50 (Human cGAS): 15000 nM

COc1nc2c3c([nH]c2c(Cl)c1Cl)C(C)(C)CN(C(=O)CO)C3 [Example 76, 1-(3,4-Dichloro-2-methoxy-6,6-dimethyl-5,6,7,9-tetrahydro-8H-pyrrolo[3,2-b:4,5-c′]dipyridin-8-yl)-2-hydroxyethan-1-one]
IC50 (Human cGAS): 850 nM

COc1nc2c3c([nH]c2c(F)c1Cl)CCN(C(=O)CO)C3 [Example 75, 1-(3-Chloro-4-fluoro-2-methoxy-5,6,7,9-tetrahydro-8H-pyrrolo[3,2-b:4,5-c′]dipyridin-8-yl)-2-hydroxyethan-1-one]
IC50 (Human cGAS): 550 nM

1-[7,8-Dichloro-10-(1-methyl-1H-pyrazol-3-yl)-3,4-dihydropyrazino[1,2-b]indazol-2(1H)-yl]-2-hydroxyethan-1-one [Example 67]
IC50 (THP1 cells): 140 nM

N#Cc1ccc2c3c([nH]c2c1C#N)CCN(C(=O)CO)C3 [TDI-006932, reference compound]
IC50 (h-cGAS; [1]): > 25000 nM

Cn1ccc(-c2nc(Cl)c(Cl)c3[nH]c4c(c23)CN(C(=O)CO)CC4)n1 [Example 25, 1-[6,7-Dichloro-9-(1-methyl-1H-pyrazol-3-yl)-1,3,4,5-tetrahydro-2H-pyrrolo[3,2-c:4,5-c′]dipyridin-2-yl]-2-hydroxyethan-1-one]
IC50 (Human cGAS): 95 nM

O=C(CO)N1CCc2[nH]c3c(Cl)c(Cl)c(OCC4CC4)nc3c2C1 [Example 79, 1-[3,4-Dichloro-2-(cyclopropylmethoxy)-5,6,7,9-tetrahydro-8H-pyrrolo[3,2-b:4,5-c′]dipyridin-8-yl]-2-hydroxyethan-1-one]
IC50 (Human cGAS): 5900 nM

Cn1ccc(-c2cc(Cl)c(F)c3nn4c(c23)CN(C(=O)CO)CC4)n1 [Example 64, 1-[8-Chloro-7-fluoro-10-(1-methyl-1H-pyrazol-3-yl)-3,4-dihydropyrazino[1,2-b]indazol-2(1H)-yl]-2-hydroxyethan-1-one]
IC50 (Human cGAS): 180 nM

Cn1ccc(-c2ncc(Cl)c3[nH]c4c(c23)CN(C(=O)CO)CC4)n1 [Example 72, 1-[6-Chloro-9-(1-methyl-1H-pyrazol-3-yl)-1,3,4,5-tetrahydro-2H-pyrrolo[3,2-c:4,5-c′]dipyridin-2-yl]-2-hydroxyethan-1-one]
IC50 (Human cGAS): 250 nM

COc1nc2c3c([nH]c2c(Cl)c1Cl)CCN(C(=O)CO)C3 [Example 1, 1-(3,4-Dichloro-2-methoxy-5,6,7,9-tetrahydro-8H-pyrrolo[3,2-b:4,5-c′]dipyridin-8-yl)-2-hydroxyethan-1-one]
IC50 (h-cGAS; [2]): 61.6 nM | IC50 (THP1-Dual cells): 10700 nM | IC50 (Human cGAS): 190 nM | IC50 (THP1 cells; Homo sapiens, THP-1): 2500 nM

COCC(=O)N1CCc2[nH]c3c(Cl)c(Cl)nc(-c4ccn(C)n4)c3c2C1 [Example 30, 1-[6,7-Dichloro-9-(1-methyl-1H-pyrazol-3-yl)-1,3,4,5-tetrahydro-2H-pyrrolo[3,2-c:4,5-c′]dipyridin-2-yl]-2-methoxyethan-1-one]
IC50 (Human cGAS): 210 nM

COCC(=O)N1CCn2nc3c(Cl)c(Cl)cc(-c4ccn(C)n4)c3c2C1 [Example 68, 1-[7,8-Dichloro-10-(1-methyl-1H-pyrazol-3-yl)-3,4-dihydropyrazino[1,2-b]indazol-2(1H)-yl]-2-methoxyethan-1-one]
IC50 (Human cGAS): 240 nM | IC50 (THP1 cells; Homo sapiens, THP-1): 330 nM

Cc1nnc(-c2cc(Cl)c(F)c3nn4c(c23)CN(C(=O)CO)CC4)o1 [Example 70, 1-[8-Chloro-7-fluoro-10-(5-methyl-1,3,4-oxadiazol-2-yl)-3,4-dihydropyrazino[1,2-b]indazol-2(1H)-yl]-2-hydroxyethan-1-one]
IC50 (Human cGAS): 7500 nM

O=C(CO)N1CCc2[nH]c3c(Cl)c(Cl)cc(-c4cn[nH]c4)c3c2C1 [TDI-007445, reference compound]
IC50 (h-cGAS; [1]): 27.5 nM

O=C(CO)N1CCc2nn3c(Cl)c(Cl)ccc3c2C1 [Example 6, 1-(7,8-Dichloro-3,4-dihydropyrazolo[1,5-a:4,3-c′]dipyridin-2(1H)-yl)-2-hydroxyethan-1-one]
IC50 (h-cGAS; [2]): 20800 nM

O=C(CO)N1CCc2[nH]c3c(Cl)c(Cl)cc(-c4ccc(NC(=O)C(F)(F)F)cc4)c3c2C1 [TDI-008458, reference compound]
IC50 (h-cGAS; [1]): 629 nM
